Converted amounts (≈) assume the structure as drawn. Like-named read-outs stand apart in the source and are kept apart here.
Columns and labels:
[1] = test system: Moloney Sarcoma Virus (MSV); test: Formation of foci by Moloney Sarcoma Virus in infected mouse embryo fibroblast cultures (antiviral activity); type: cell-based
Description: In vitro test on the formation of foci by Moloney Sarcoma Virus (MSV).

[2] = test system: solid tumors; test: Solid tumors: tumor weight in mice grafted subcutaneously with fragments of neoplastic tissue; settings: for Toxicity / % T/C (mean tumor weight) / Tumor Weight: five days; for Tumor Weight: control 3.036, in g (unit assumed); for therapeutic index (T.I.): Maximum Tolerated dose (LD 10)/Minimum effective dose (T/C 0.10)
Method: In vivo tests on the activity of the Test Compound as compared with adriamycin on solid tumors were carried out on groups of ten Swiss CD 1 mice subcutaneously grafted with fragments of neoplastic tissue and treated intravenously with the respective antibiotics for five days starting form the day following the tumor implantation.
On the tenth day, all the test animals were sacrificed and their tumors removed and weighed.
*The therapeutic index (T.I) is expressed as the ratio between the maximu
tolerated dose (LD10) and the minimum effective dose, according to
Skipper and Schmidt, Cancer Chemother, Rep. 17 : 1-128, 1962. The minimum
effective dose indicates the dose which reduces by 90% the weight of
tumors compared to controls : such 90% reduction correponds to a T/C valu
**% T/C = (mean tumor weight of treated mice/mean tumor weight of control

[3] = test system: mouse embryo fibroblast cultures; test: Cell proliferation in uninfected mouse embryo fibroblast cultures (cytotoxic activity); settings: 3 days
[4] = test system: L 1210 leukemia cells; test: Leukemia: survival of mice inoculated intraperitoneally with L 1210 leukemia cells; type: in vivo, BDF 1 mice; settings: for Toxicity / % T/C (mean survival time) / Average Survival Time: once; for % T/C (mean survival time) / Average Survival Time: day after implantation; for Average Survival Time: control 8
Method: The activity of the Test Compound was tested on BDF 1 mice inoculated intraperitoneally with 1×10^5 L 1210 leukemia cells/animal.
The animals were treated once, the day after tumor implantation.
(§1) *% T/C = (mean survival time of treated mice/mean survival time of contro

[5] = test system: HeLa cells; test: Viability (colony formation) of HeLa cells in vitro; type: cell-based; settings: for IC50: Homo sapiens, HeLa, colony numbers 6 days later
Method: In vitro studies were carried out on HeLa cells, maintained in Eagle medium supplemented with 10% calf serum. The cells were treated with daunomycin, adriamycin* and the Test Compound for different periods of times. The cell viability was assessed by […] of 200-300 cells/plate. Colony numbers were evaluated 6 days later.

[6] = test system: ascites sarcoma 180 cells; test: Ascitic tumors: survival of mice inoculated intraperitoneally with ascites sarcoma 180 cells; type: in vivo, mice (Swiss CD 1); settings: i.p.
Method: Tests were carried out on groups of 10 mice (Swiss CD 1) inoculated intraperitoneally with 1 × 10^6 ascites sarcoma 180 cells/animal. The animals were treated intraperitoneally with different concentrations of the Test Compound and adriamycin once a day following tumor implantation.
as §1
**The figures in parentheses indicate the number of longterm survivors,
animals, one animal remained alive at the end of 60 days. (*) % T/C =

[7] = Fibroblast, 72 h, read-out: % Foci (control = 100)
[8] = read-out: ID 50, 2 hrs. treatment
[9] = read-out: ID 50, 8 hrs. treatment

In the case of CC(=O)C1(O)Cc2c(O)c3c(c(O)c2C(O[C@H]2C[C@H](N)[C@H](O)[C@H](C)O2)C1)C(=O)c1ccccc1C3=O (mixture of isomers) [Test Compound, mixture of the α-anomers of (-)daunosaminyl(-)4-demethoxydaunomycinone and (-(daunosaminyl(+)4-demethoxydaunomycinone], the “antiviral activity (MSV foci formation), in words” value ([1]; 3 days) is reported as “lesser antiviral activity than adriamycin”, the activity at 0.006 µg/mL ([1]; Fibroblast, 72 h, 0.006 γ/ml, 3 days, read-out: % Foci (control = 100)) is reported as 54% and the activity at 0.025 µg/mL ([1]; Fibroblast, 72 h, 0.0250 γ/ml, 3 days, read-out: % Foci (control = 100)) is reported as 12%. The activity at 0.1 µg/mL ([1]; Fibroblast, 72 h, 0.1 γ/ml, 3 days, read-out: % Foci (control = 100)) was 0%, the activity at 0.6 µg/mL ([1]; Fibroblast, 72 h, 0.6 γ/ml, 3 days, read-out: % Foci (control = 100)) was 0% and the Toxicity ([2]; 0.5 mg/kg i.v.) was 0/10. For the same compound, the “% T/C (mean tumor weight)” value ([2]; 0.5 mg/kg i.v., tenth day) was 76%, the “Tumor Weight” value ([2]; 0.5 mg/kg i.v., tenth day) was 2.295 and the Toxicity ([2]; 1 mg/kg i.v.) was 0/10. The “% T/C (mean tumor weight)” value ([2]; 1 mg/kg i.v., tenth day) was 51%, the “Tumor Weight” value ([2]; 1 mg/kg i.v., tenth day) was 1.550 and the “inhibition of the tumor growth” value ([2]; 1 mg/kg i.v., higher non toxic dose tested, tenth day) was 50%. For the same compound, the Toxicity ([2]; 2 mg/kg i.v.) was 3/10, the “% T/C (mean tumor weight)” value ([2]; 2 mg/kg i.v., tenth day) was 16% and the “Tumor Weight” value ([2]; 2 mg/kg i.v., tenth day) was 0.485. For the same compound, the “therapeutic index (T.I.)” value [2] was 3.7, the “cytotoxic activity, in words” value [3] was “the same cytotoxic activity as adriamycin” and the Toxicity ([4]; 0.75 mg/kg) was 0/10. For the same compound, the “% T/C (mean survival time)” value ([4]; 0.75 mg/kg) was 156%, the “Average Survival Time” value ([4]; 0.75 mg/kg) was 12.5 and the Toxicity ([4]; 1.5 mg/kg) was 1/10. For the same compound, the “% T/C (mean survival time)” value ([4]; 1.5 mg/kg) was 162%, the “Average Survival Time” value ([4]; 1.5 mg/kg) was 13 and the Toxicity ([4]; 3 mg/kg) was 7/10. For the same compound, the “% T/C (mean survival time)” value ([4]; 3 mg/kg) was 87%, the “Average Survival Time” value ([4]; 3 mg/kg) was 7 and the “average survival time of treated animals, in words” value ([4]; non toxic doses tested) was “increased considerably”. For the same compound, the “active dose relative to adriamycin, in words” value ([4]; single treatment) was “active at lower doses than adriamycin”, the “activity on HeLa cell viability, in words” value ([5]; 2 hours of treatment) was “as active as adriamycin” and the “inhibition of cell viability, in words” value ([5]; 8 hours of treatment) was “higher than the inhibition by either adriamycin or daunomycin”. The IC50 ([5]; 2 hrs. treatment, read-out: ID 50 (the source's name)) was 0.2 µg/mL, the IC50 ([5]; 8 hrs. treatment, read-out: ID 50 (the source's name)) was 0.002 µg/mL and the “% T/C, average survival time” value ([6]; Experiment 1, 1 mg/kg day) was 185%. For the same compound, the “number of longterm survivors, i.e., after 60 days” value (shortened to “number of longterm survivors”) ([6]; Experiment 1, 1 mg/kg day) was 0/10, the “% T/C, average survival time” value ([6]; Experiment 1, 2 mg/kg day) was 61% and the “number of longterm survivors” value ([6]; Experiment 1, 2 mg/kg day) was 1/10. For the same compound, the “% T/C, average survival time” value ([6]; Experiment 1, 5 mg/kg day) was 38%, the “number of longterm survivors” value ([6]; Experiment 1, 5 mg/kg day) was 0/10 and the “% T/C, average survival time” value ([6]; Experiment 2, 0.2 mg/kg day) was 146%. The “number of longterm survivors” value ([6]; Experiment 2, 0.2 mg/kg day) was 0/10, the “% T/C, average survival time” value ([6]; Experiment 2, 1 mg/kg day) was 107% and the “number of longterm survivors” value ([6]; Experiment 2, 1 mg/kg day) was 0/10. For the same compound, the “% T/C, average survival time” value ([6]; Experiment 2, 1.5 mg/kg day) was 79%, the “number of longterm survivors” value ([6]; Experiment 2, 1.5 mg/kg day) was 0/10 and the “% T/C, average survival time” value ([6]; Experiment 3, 0.12 mg/kg day) was 115%. For the same compound, the “number of longterm survivors” value ([6]; Experiment 3, 0.12 mg/kg day) was 0/10, the “% T/C, average survival time” value ([6]; Experiment 3, 0.25 mg/kg day) was 188% and the “number of longterm survivors” value ([6]; Experiment 3, 0.25 mg/kg day) was 1/10. For the same compound, the “% T/C, average survival time” value ([6]; Experiment 3, 0.5 mg/kg day) was 181%, the “number of longterm survivors” value ([6]; Experiment 3, 0.5 mg/kg day) was 0/10 and the “% T/C, average survival time” value ([6]; Experiment 3, 1 mg/kg day) was 223%. For the same compound, the “number of longterm survivors” value ([6]; Experiment 3, 1 mg/kg day) was 1/10, the “active dose relative to adriamycin, in words” value ([6]; once a day) was “active at lower doses than adriamycin” and the “effect on ascitic tumor growth, in words” value ([6]; once a day) was “remarkable effect on ascitic tumor growth”.
With COc1cccc2c1C(=O)c1c(O)c3c(c(O)c1C2=O)C[C@@](O)(C(=O)CO)C[C@@H]3O[C@H]1C[C@H](N)[C@H](O)[C@H](C)O1 [Adriamycin, reference compound] the activity at 0.006 µg/mL [1, 7] was 26%, the activity at 0.0125 µg/mL [1, 7] was 0% and the activity at 0.025 µg/mL [1, 7] was 0%. For the same compound, the Toxicity ([2]; 2.5 mg/kg i.v.) was 0/10, the “% T/C (mean tumor weight)” value ([2]; 2.5 mg/kg i.v., tenth day) was 48% and the “Tumor Weight” value ([2]; 2.5 mg/kg i.v., tenth day) was 1.465. The Toxicity ([2]; 3.5 mg/kg i.v.) was 7/10, the “% T/C (mean tumor weight)” value ([2]; 3.5 mg/kg i.v., tenth day) was 12% and the “Tumor Weight” value ([2]; 3.5 mg/kg i.v., tenth day) was 0.364. The “therapeutic index (T.I.)” value [2] was 1.8, the Toxicity ([4]; 2.5 mg/kg) was 0/10 and the “% T/C (mean survival time)” value ([4]; 2.5 mg/kg) was 156%. The “Average Survival Time” value ([4]; 2.5 mg/kg) was 12.5, the Toxicity ([4]; 5 mg/kg) was 0/10 and the “% T/C (mean survival time)” value ([4]; 5 mg/kg) was 175%. For the same compound, the “Average Survival Time” value ([4]; 5 mg/kg) was 14, the Toxicity ([4]; 10 mg/kg) was 4/10 and the “% T/C (mean survival time)” value ([4]; 10 mg/kg) was 200%. For the same compound, the “Average Survival Time” value ([4]; 10 mg/kg) was 16, the IC50 [5, 8] was 0.2 µg/mL (≈ 0.368 µM) and the IC50 [5, 9] was 0.039 µg/mL (≈ 0.0718 µM). The “% T/C, average survival time” value ([6]; Experiment 1, 1 mg/kg day) was 146%, the “number of longterm survivors” value ([6]; Experiment 1, 1 mg/kg day) was 1/9 and the “% T/C, average survival time” value ([6]; Experiment 1, 2 mg/kg day) was 400%. The “number of longterm survivors” value ([6]; Experiment 1, 2 mg/kg day) was 5/10, the “% T/C, average survival time” value ([6]; Experiment 1, 5 mg/kg day) was 311% and the “number of longterm survivors” value ([6]; Experiment 1, 5 mg/kg day) was 4/10. The “% T/C, average survival time” value ([6]; Experiment 2, 0.2 mg/kg day) was 107%, the “number of longterm survivors” value ([6]; Experiment 2, 0.2 mg/kg day) was 0/10 and the “% T/C, average survival time” value ([6]; Experiment 2, 1 mg/kg day) was 143%. The “number of longterm survivors” value ([6]; Experiment 2, 1 mg/kg day) was 1/10, the “% T/C, average survival time” value ([6]; Experiment 2, 5 mg/kg day) was 225% and the “number of longterm survivors” value ([6]; Experiment 2, 5 mg/kg day) was 1/10. The “% T/C, average survival time” value ([6]; Experiment 2, 10 mg/kg day) was 193%, the “number of longterm survivors” value ([6]; Experiment 2, 10 mg/kg day) was 0/10 and the “% T/C, average survival time” value ([6]; Experiment 3, 0.1 mg/kg day) was 100%. For the same compound, the “number of longterm survivors” value ([6]; Experiment 3, 0.1 mg/kg day) was 0/10, the “% T/C, average survival time” value ([6]; Experiment 3, 1 mg/kg day) was 169% and the “number of longterm survivors” value ([6]; Experiment 3, 1 mg/kg day) was 1/9.
COc1cccc2c1C(=O)c1c(O)c3c(c(O)c1C2=O)C[C@@](O)(C(C)=O)C[C@@H]3O[C@H]1C[C@H](N)[C@H](O)[C@H](C)O1 [Daunomycin] gave an IC50 [5, 8] of 0.095 µg/mL (≈ 0.18 µM) and an IC50 [5, 9] of 0.023 µg/mL (≈ 0.0436 µM).
